Measurements taken from patent EP0238178B1, “Novel derivatives of erythromycylamine” (ELI LILLY AND COMPANY, priority 1986, dated 1987).
Converted amounts (≈) assume the structure as drawn. Like-named read-outs stand apart in the source and are kept apart here.

Key:
[1] = tested on: Streptococcus pyogenes C203; assay: MIC, standard agar-dilution assay; type: cell-based
Escherichia coli EC14 = assay: MIC, standard agar-dilution assay; type: cell-based
[2] = tested on: Streptococcus sp. group D X66; assay: MIC, standard agar-dilution assay; type: cell-based; settings: Streptococcus sp. group D X66
[3] = tested on: Staphylococcus epidermidis 222; assay: MIC, standard agar-dilution assay; type: cell-based
[4] = tested on: Haemophilus influenzae 76; assay: MIC, standard agar-dilution assay; type: cell-based; settings: Haemophilus influenzae 76, Ampicillin-resistant strain
[5] = tested on: Haemophilus influenzae C.L.; assay: MIC, standard agar-dilution assay; type: cell-based; settings: Ampicillin-sensitive strain
[6] = tested on: Staphylococcus aureus S13E; assay: MIC, standard agar-dilution assay; type: cell-based
[7] = tested on: Streptococcus pneumoniae Park I; assay: MIC, standard agar-dilution assay; type: cell-based
[8] = tested on: Streptococcus sp. group D 2041; assay: MIC, standard agar-dilution assay; type: cell-based
[9] = tested on: Staphylococcus aureus X1.1; assay: MIC, standard agar-dilution assay; type: cell-based
Streptococcus pyogenes = assay: Experimental bacterial infection in mice, ED50; type: in vivo; settings: two doses, dose protecting 50% of animals; for ED50: Streptococcus pyogenes
Protocol: (§1) The new derivatives of this invention have also shown in vivo antimicrobial activity against experimental bacterial infections. When two doses of test compound were administered to mice in experimental infections, the activity observed was measured as an EDso value [effective dose in mg/kg to protect 50% of the test animals: see Warren Wick, et al., J. Bacteriol. 81, 233-235 (1961)].

Staphylococcus aureus = assay: Experimental bacterial infection in mice, ED50; type: in vivo; settings: two doses, dose protecting 50% of animals; for ED50: Staphylococcus aureus
Protocol: as §1

Streptococcus pneumoniae = assay: Experimental bacterial infection in mice, ED50; type: in vivo; settings: two doses, dose protecting 50% of animals; for ED50: Streptococcus pneumoniae
Protocol: as §1

[10] = tested on: Klebsiella pneumoniae X68; assay: MIC, standard agar-dilution assay; type: cell-based; settings: read-out: MIC
[11] = sc, subcutaneous, read-out: Subcutaneous ED50

Compound	MIC ([1]; read-out: MIC)	MIC (Escherichia coli EC14; read-out: MIC)	MIC ([2]; read-out: MIC)	MIC ([3]; read-out: MIC)	MIC ([4]; read-out: MIC)	MIC ([5]; read-out: MIC)	MIC [6]	MIC ([7]; read-out: MIC)	MIC ([8]; read-out: MIC)	MIC ([9]; read-out: MIC)	ED50 (Streptococcus pyogenes; po, read-out: Oral ED50)	ED50 (Staphylococcus aureus; po, read-out: Oral ED50)	ED50 (Streptococcus pneumoniae; po, read-out: Oral ED50)	also measured
CCCCCCN[C@@H]1[C@H](C)[C@@H](O)[C@](C)(O)[C@@H](CC)OC(=O)[C@H](C)[C@@H](O[C@H]2C[C@@](C)(OC)[C@@H](O)[C@H](C)O2)[C@H](C)[C@@H](O[C@@H]2O[C@H](C)C[C@H](N(C)C)[C@H]2O)[C@](C)(O)C[C@H]1C [Compound 6, 9-Deoxo-9-(n-hexylamino)erythromycin]	0.125 µg/mL (≈ 0.153 µM)	64 µg/mL (≈ 78.1 µM)	0.125 µg/mL (≈ 0.153 µM)	0.25 µg/mL (≈ 0.305 µM)	4 µg/mL (≈ 4.88 µM)	4 µg/mL (≈ 4.88 µM)	1 µg/mL (≈ 1.22 µM)	< 0.008 µg/mL	4 µg/mL (≈ 4.88 µM)	1 µg/mL (≈ 1.22 µM)	17.7 mg/kg	38.6 mg/kg	14.3 mg/kg	–
CCCCCCCN[C@@H]1[C@H](C)[C@@H](O)[C@](C)(O)[C@@H](CC)OC(=O)[C@H](C)[C@@H](O[C@H]2C[C@@](C)(OC)[C@@H](O)[C@H](C)O2)[C@H](C)[C@@H](O[C@@H]2O[C@H](C)C[C@H](N(C)C)[C@H]2O)[C@](C)(O)C[C@H]1C [Compound 7, 9-Deoxo-9-(-n-heptylamino)erythromycin]	0.015 µg/mL (≈ 0.018 µM)	64 µg/mL (≈ 76.8 µM)	0.06 µg/mL (≈ 0.072 µM)	0.25 µg/mL (≈ 0.3 µM)	2 µg/mL (≈ 2.4 µM)	1 µg/mL (≈ 1.2 µM)	–	0.015 µg/mL (≈ 0.018 µM)	2 µg/mL (≈ 2.4 µM)	0.25 µg/mL (≈ 0.3 µM)	30.6 mg/kg	> 50 mg/kg	33.2 mg/kg	–
CC[C@H]1OC(=O)[C@H](C)[C@@H](O[C@H]2C[C@@](C)(OC)[C@@H](O)[C@H](C)O2)[C@H](C)[C@@H](O[C@@H]2O[C@H](C)C[C@H](N(C)C)[C@H]2O)[C@](C)(O)C[C@@H](C)[C@H](NCC2CC=CCC2)[C@H](C)[C@@H](O)[C@]1(C)O (stereo partly drawn) [Compound 15, 9-Deoxo-9-[(1-cyclohex-4-enylmethyl)amino]erythromycin]	0.06 µg/mL (≈ 0.0724 µM)	64 µg/mL (≈ 77.2 µM)	0.25 µg/mL (≈ 0.302 µM)	0.25 µg/mL (≈ 0.302 µM)	2 µg/mL (≈ 2.41 µM)	4 µg/mL (≈ 4.82 µM)	1 µg/mL (≈ 1.21 µM)	< 0.008 µg/mL	8 µg/mL (≈ 9.65 µM)	1 µg/mL (≈ 1.21 µM)	14.9 mg/kg	20 mg/kg	8.7 mg/kg	–
CC[C@H]1OC(=O)[C@H](C)[C@@H](O[C@H]2C[C@@](C)(OC)[C@@H](O)[C@H](C)O2)[C@H](C)[C@@H](O[C@@H]2O[C@H](C)C[C@H](N(C)C)[C@H]2O)[C@](C)(O)C[C@@H](C)[C@H](NCCCc2ccccc2)[C@H](C)[C@@H](O)[C@]1(C)O [Compound 17, (9S)-9-Deoxo-9-[(3-phenypropyl)amino]erythromycin]	0.015 µg/mL (≈ 0.0176 µM)	128 µg/mL (≈ 150 µM)	0.06 µg/mL (≈ 0.0703 µM)	0.5 µg/mL (≈ 0.586 µM)	2 µg/mL (≈ 2.34 µM)	2 µg/mL (≈ 2.34 µM)	0.5 µg/mL (≈ 0.586 µM)	0.015 µg/mL (≈ 0.0176 µM)	2 µg/mL (≈ 2.34 µM)	1 µg/mL (≈ 1.17 µM)	14.1 mg/kg	36.9 mg/kg	17.2 mg/kg	–
CC[C@H]1OC(=O)[C@H](C)[C@@H](O[C@H]2C[C@@](C)(OC)[C@@H](O)[C@H](C)O2)[C@H](C)[C@@H](O[C@@H]2O[C@H](C)C[C@H](N(C)C)[C@H]2O)[C@](C)(O)C[C@@H](C)[C@H](NCCCCCO)[C@H](C)[C@@H](O)[C@]1(C)O [Compound 21, 9-Deoxo-9-[(5-hydroxypentyl)amino]erythromycin]	< 0.008 µg/mL	32 µg/mL (≈ 39 µM)	0.25 µg/mL (≈ 0.304 µM)	0.5 µg/mL (≈ 0.609 µM)	–	2 µg/mL (≈ 2.44 µM)	0.25 µg/mL (≈ 0.304 µM)	< 0.008 µg/mL	4 µg/mL (≈ 4.87 µM)	0.5 µg/mL (≈ 0.609 µM)	42.6 mg/kg	> 50 mg/kg	> 50 mg/kg	MIC [10]: 128 µg/mL (≈ 156 µM)
CC[C@H]1OC(=O)[C@H](C)[C@@H](O[C@H]2C[C@@](C)(OC)[C@@H](O)[C@H](C)O2)[C@H](C)[C@@H](O[C@@H]2O[C@H](C)C[C@H](N(C)C)[C@H]2O)[C@](C)(O)C[C@@H](C)[C@H](NCCCOC)[C@H](C)[C@@H](O)[C@]1(C)O [Compound 23, (9S)-9-Deoxo-9-[(3-methoxypropyl)amino]erythromycin]	0.125 µg/mL (≈ 0.155 µM)	64 µg/mL (≈ 79.3 µM)	0.25 µg/mL (≈ 0.31 µM)	0.5 µg/mL (≈ 0.62 µM)	4 µg/mL (≈ 4.96 µM)	4 µg/mL (≈ 4.96 µM)	2 µg/mL (≈ 2.48 µM)	0.03 µg/mL (≈ 0.0372 µM)	8 µg/mL (≈ 9.91 µM)	2 µg/mL (≈ 2.48 µM)	13.5 mg/kg	16.4 mg/kg	15.9 mg/kg	ED50 (Streptococcus pyogenes; [11]): 2.1 mg/kg; ED50 (Staphylococcus aureus; [11]): 3.73 mg/kg; ED50 (Streptococcus pneumoniae; [11]): 8.3 mg/kg
CC[C@H]1OC(=O)[C@H](C)[C@@H](O[C@H]2C[C@@](C)(OC)[C@@H](O)[C@H](C)O2)[C@H](C)[C@@H](O[C@@H]2O[C@H](C)C[C@H](N(C)C)[C@H]2O)[C@](C)(O)C[C@@H](C)[C@H](NCCCSC)[C@H](C)[C@@H](O)[C@]1(C)O [Compound 26, 9-Deoxo-9-[[3-(methylthio)propyl]amino]erythromycin]	0.015 µg/mL (≈ 0.0182 µM)	128 µg/mL (≈ 156 µM)	0.25 µg/mL (≈ 0.304 µM)	0.5 µg/mL (≈ 0.607 µM)	4 µg/mL (≈ 4.86 µM)	4 µg/mL (≈ 4.86 µM)	0.25 µg/mL (≈ 0.304 µM)	0.015 µg/mL (≈ 0.0182 µM)	2 µg/mL (≈ 2.43 µM)	0.5 µg/mL (≈ 0.607 µM)	7.9 mg/kg	–	9.2 mg/kg	–
CCOC(=O)C1CC1CN[C@@H]1[C@H](C)[C@@H](O)[C@](C)(O)[C@@H](CC)OC(=O)[C@H](C)[C@@H](O[C@H]2C[C@@](C)(OC)[C@@H](O)[C@H](C)O2)[C@H](C)[C@@H](O[C@@H]2O[C@H](C)C[C@H](N(C)C)[C@H]2O)[C@](C)(O)C[C@H]1C (stereo partly drawn) [Compound 27, 9-Deoxo-9-[[[2-(ethoxycarbonyl)cyclopropyl]methyl]amino]erythromycin]	–	–	–	–	–	–	–	–	–	–	27.1 mg/kg	50 mg/kg	30.4 mg/kg	–
CC[C@H]1OC(=O)[C@H](C)[C@@H](O[C@H]2C[C@@](C)(OC)[C@@H](O)[C@H](C)O2)[C@H](C)[C@@H](O[C@@H]2O[C@H](C)C[C@H](N(C)C)[C@H]2O)[C@](C)(O)C[C@@H](C)[C@H](NCCCC#N)[C@H](C)[C@@H](O)[C@]1(C)O [Compound 29, 9-Deoxo-9-[(3-cyanopropyl)amino]erythromycin]	–	–	–	–	–	–	–	–	–	–	21.1 mg/kg	36.1 mg/kg	28.7 mg/kg	–
CC[C@H]1OC(=O)[C@H](C)[C@@H](O[C@H]2C[C@@](C)(OC)[C@@H](O)[C@H](C)O2)[C@H](C)[C@@H](O[C@@H]2O[C@H](C)C[C@H](N(C)C)[C@H]2O)[C@](C)(O)C[C@@H](C)[C@H](NCCC2=C(C)CCCC2(C)C)[C@H](C)[C@@H](O)[C@]1(C)O [Compound 30, 9-Deoxo-9-[[2-(2,6,6-trimethyl-1-cyclohexen-1-yl)ethyl]amino]erythromycin]	–	–	–	–	–	–	–	–	–	–	> 50 mg/kg	> 50 mg/kg	> 50 mg/kg	–
CC[C@H]1OC(=O)[C@H](C)[C@@H](O[C@H]2C[C@@](C)(OC)[C@@H](O)[C@H](C)O2)[C@H](C)[C@@H](O[C@@H]2O[C@H](C)C[C@H](N(C)C)[C@H]2O)[C@](C)(O)C[C@@H](C)[C@H](NCCOC)[C@H](C)[C@@H](O)[C@]1(C)O [Compound 31, 9-Deoxo-9-[(2-Methoxyethyl)amino]erythromycin]	–	–	–	–	–	–	–	–	–	–	16.3 mg/kg	35.2 mg/kg	18.7 mg/kg	ED50 (Streptococcus pyogenes; [11]): 2.1 mg/kg; ED50 (Staphylococcus aureus; [11]): 2.5 mg/kg; ED50 (Streptococcus pneumoniae; [11]): 3.3 mg/kg
CCCN[C@@H]1[C@H](C)[C@@H](O)[C@@H](C)[C@@H](CC)OC(=O)[C@H](C)[C@@H](O[C@H]2C[C@@](C)(OC)[C@@H](O)[C@H](C)O2)[C@H](C)[C@@H](O[C@@H]2O[C@H](C)C[C@H](N(C)C)[C@H]2O)[C@](C)(O)C[C@H]1C [Compound 38]	–	–	–	–	–	–	–	–	–	–	20.6 mg/kg	41 mg/kg	50 mg/kg	–
CCCCCCCCCCN[C@@H]1[C@H](C)[C@@H](O)[C@@H](C)[C@@H](CC)OC(=O)[C@H](C)[C@@H](O[C@H]2C[C@@](C)(OC)[C@@H](O)[C@H](C)O2)[C@H](C)[C@@H](O[C@@H]2O[C@H](C)C[C@H](N(C)C)[C@H]2O)[C@](C)(O)C[C@H]1C [Compound 41]	–	–	–	–	–	–	–	–	–	–	> 50 mg/kg	> 50 mg/kg	> 50 mg/kg	–
CC[C@H]1OC(=O)[C@H](C)[C@@H](O[C@H]2C[C@@](C)(OC)[C@@H](O)[C@H](C)O2)[C@H](C)[C@@H](O[C@@H]2O[C@H](C)C[C@H](N(C)C)[C@H]2O)[C@](C)(O)C[C@@H](C)[C@H](NCCOCCOC)[C@H](C)[C@@H](O)[C@H]1C [Compound 49]	–	–	–	–	–	–	–	–	–	–	40.9 mg/kg	> 50 mg/kg	> 56 mg/kg	–
Endo- and Exo-9-Deoxo-9-[(bicyclo[2.2.1]hept-2-en-5-yl-methyl)amino]erythromycin [Compound 19]	–	–	–	–	–	–	2 µg/mL	–	–	–	–	–	–	MIC [1]: 0.25 µg/mL; MIC (Escherichia coli EC14): 64 µg/mL; MIC [2]: 1 µg/mL; MIC [3]: 1 µg/mL; MIC [4]: 8 µg/mL; MIC [5]: 8 µg/mL; MIC [7]: 0.015 µg/mL; MIC [8]: 8 µg/mL; MIC [9]: 2 µg/mL; Oral ED50 (Streptococcus pyogenes; oral): 16.6 mg/kg; Oral ED50 (Staphylococcus aureus; oral): >50 mg/kg; Oral ED50 (Streptococcus pneumoniae; oral): 25.0 mg/kg
